{"source": "patent US7846939B2", "about": "“Salts and mixture of 9-oxoacridine-10-acetic acid with 1-alkylamino-1-desoxy-polyols, pharmaceutical compositions containing said agents and treatment methods” (priority 2005, dated 2010)", "test_system": "Chlamydia", "assay": "Chronic inflammatory diseases of uterus and appendages, 250 mg i.m., 10 injections, with BAT (ofloxacin)", "format": "in vivo, human"}
{"smiles": "CC1COc2c(N3CCN(C)CC3)c(F)cc3c(=O)c(C(=O)O)cn1c23", "note": "(stereo not drawn) [Basic antibacterial therapy, BAT, ofloxacin]", "values": [{"measurement": "Alpha-interferon, produced by the peripheral blood leukocytes, induced in culture by the Newcastle disease virus, mean", "setting": "After treatment", "value": 5.3, "unit": "log2 IU/ml"}, {"measurement": "Amount of cytoplasmic granules in peripheral blood PNLs, mean", "setting": "After treatment", "value": 10.2}, {"measurement": "Gamma-interferon, produced by the peripheral blood leukocytes, induced in culture by staphylococcus enterotoxin A, mean", "setting": "After treatment", "value": 4.7, "unit": "log2 IU/ml"}, {"measurement": "Serum interferon, mean", "setting": "After treatment", "value": 0.8, "unit": "log2 IU/ml"}, {"measurement": "Alpha-interferon, produced by the peripheral blood leukocytes, induced in culture by the Newcastle disease virus, mean", "setting": "Before treatment", "value": 5.1, "unit": "log2 IU/ml"}, {"measurement": "Amount of cytoplasmic granules in peripheral blood PNLs, mean", "setting": "Before treatment", "value": 8.5}, {"measurement": "Gamma-interferon, produced by the peripheral blood leukocytes, induced in culture by staphylococcus enterotoxin A, mean", "setting": "Before treatment", "value": 4.7, "unit": "log2 IU/ml"}, {"measurement": "Serum interferon, mean", "setting": "Before treatment", "value": 0.2, "unit": "log2 IU/ml"}, {"measurement": "Etiological recovery", "setting": "PCR control", "value": 69, "unit": "%"}]}
